In ChEMBL document CHEMBL5465560, “Selectivity Literature for EUbOPEN Chemogenomic Library” (2024):
Each block holds one compound with its values, some of them ahead of it.

Assays:
[1] = molecular target: Serine/threonine-protein kinase SIK1 (Homo sapiens) (UniProt P57059); test: Selectivity interaction (LanthaScreen Eu Kinase Binding Assay) EUB0001632a SIK1; details: at 10 µM
[2] = molecular target: Atypical kinase COQ8A, mitochondrial (Homo sapiens, UniProt Q8NI60); test: Selectivity interaction (LanthaScreen Eu Kinase Binding Assay) EUB0001632a ADCK3; details: at 10 µM
[3] = molecular target: ALK tyrosine kinase receptor (Homo sapiens, UniProt Q9UM73); test: Selectivity interaction (Kinase panel (33PanQinase(R) Activity Assay)) EUB0000877a ALK
[4] = molecular target: Death-associated protein kinase 1 (Homo sapiens, UniProt P53355); details: at 10 µM
[5] = molecular target: Mitogen-activated protein kinase 9 (Homo sapiens, UniProt P45984); test: Selectivity interaction (ActivX KiNativ screen (kinase selectivity in THP-1 cell lysates)) EUB0000639a MAPK9; assay type: subcellular; details: lysate, at 0.04 µM
[6] = molecular target: Wee1-like protein kinase 2 (Homo sapiens) (UniProt P0C1S8); test: Selectivity interaction (KinomeScan (DiscoverX)) EUB0000655a WEE2; details: at 10 µM
[7] = molecular target: Wee1-like protein kinase (Homo sapiens) (UniProt P30291); test: Selectivity interaction (KinomeScan (DiscoverX)) EUB0000045b WEE1
[8] = molecular target: T1, Protein kinase C iota type (Homo sapiens) (UniProt P41743); test: Selectivity interaction (KinomeScan (DiscoverX)) EUB0000092b PRKCI; details: at 10 µM
T1 sequence (whole entry): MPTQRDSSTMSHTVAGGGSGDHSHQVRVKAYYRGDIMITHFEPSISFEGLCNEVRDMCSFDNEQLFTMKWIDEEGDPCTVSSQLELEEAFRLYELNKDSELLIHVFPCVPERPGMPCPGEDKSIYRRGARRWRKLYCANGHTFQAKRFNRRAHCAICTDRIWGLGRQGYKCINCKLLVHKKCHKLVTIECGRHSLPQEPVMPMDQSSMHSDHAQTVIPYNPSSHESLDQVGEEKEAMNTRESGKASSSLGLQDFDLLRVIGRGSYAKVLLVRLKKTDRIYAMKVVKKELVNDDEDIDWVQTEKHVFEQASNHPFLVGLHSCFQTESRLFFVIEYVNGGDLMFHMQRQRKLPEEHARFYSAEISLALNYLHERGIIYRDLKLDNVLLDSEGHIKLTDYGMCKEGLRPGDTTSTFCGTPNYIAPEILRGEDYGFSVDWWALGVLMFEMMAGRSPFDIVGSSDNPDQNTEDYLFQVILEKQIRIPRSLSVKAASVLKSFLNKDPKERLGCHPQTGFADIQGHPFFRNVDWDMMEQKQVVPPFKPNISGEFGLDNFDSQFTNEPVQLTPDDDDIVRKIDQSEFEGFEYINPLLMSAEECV

[9] = molecular target: Transient receptor potential cation channel subfamily M member 6 (Homo sapiens) (UniProt Q9BX84); test: Selectivity interaction (KinomeScan (DiscoverX)) EUB0000092b TRPM6; details: at 10 µM
[10] = molecular target: Serine/threonine-protein kinase 16 (Homo sapiens, UniProt O75716); details: at 10 µM
[11] = molecular target: T2, Tyrosine-protein kinase ZAP-70 (Homo sapiens) (UniProt P43403); test: Selectivity interaction (KinomeScan (DiscoverX)) EUB0000618a ZAP70; details: at 10 µM
T2 sequence (whole entry): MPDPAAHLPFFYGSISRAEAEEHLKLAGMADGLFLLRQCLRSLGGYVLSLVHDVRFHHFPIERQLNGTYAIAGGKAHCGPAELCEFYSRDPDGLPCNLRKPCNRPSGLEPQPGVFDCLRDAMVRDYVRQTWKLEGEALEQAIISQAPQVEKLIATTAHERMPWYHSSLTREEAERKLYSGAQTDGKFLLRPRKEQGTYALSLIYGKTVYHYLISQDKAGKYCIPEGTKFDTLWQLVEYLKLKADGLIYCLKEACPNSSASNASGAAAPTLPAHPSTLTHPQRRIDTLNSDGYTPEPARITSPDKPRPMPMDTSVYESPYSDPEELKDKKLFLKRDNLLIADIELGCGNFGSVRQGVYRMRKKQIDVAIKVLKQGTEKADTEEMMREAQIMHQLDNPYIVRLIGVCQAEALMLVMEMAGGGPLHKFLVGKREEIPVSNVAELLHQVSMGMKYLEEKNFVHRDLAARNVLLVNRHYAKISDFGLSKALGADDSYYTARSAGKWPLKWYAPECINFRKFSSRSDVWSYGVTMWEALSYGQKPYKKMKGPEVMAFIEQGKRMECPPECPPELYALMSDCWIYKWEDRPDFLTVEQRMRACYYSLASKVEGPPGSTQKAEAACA

[12] = molecular target: T3, Ephrin type-B receptor 6 (Homo sapiens) (UniProt O15197); test: Selectivity interaction (KinomeScan (DiscoverX)) EUB0000618a EPHB6; details: at 10 µM
T3 sequence (whole entry): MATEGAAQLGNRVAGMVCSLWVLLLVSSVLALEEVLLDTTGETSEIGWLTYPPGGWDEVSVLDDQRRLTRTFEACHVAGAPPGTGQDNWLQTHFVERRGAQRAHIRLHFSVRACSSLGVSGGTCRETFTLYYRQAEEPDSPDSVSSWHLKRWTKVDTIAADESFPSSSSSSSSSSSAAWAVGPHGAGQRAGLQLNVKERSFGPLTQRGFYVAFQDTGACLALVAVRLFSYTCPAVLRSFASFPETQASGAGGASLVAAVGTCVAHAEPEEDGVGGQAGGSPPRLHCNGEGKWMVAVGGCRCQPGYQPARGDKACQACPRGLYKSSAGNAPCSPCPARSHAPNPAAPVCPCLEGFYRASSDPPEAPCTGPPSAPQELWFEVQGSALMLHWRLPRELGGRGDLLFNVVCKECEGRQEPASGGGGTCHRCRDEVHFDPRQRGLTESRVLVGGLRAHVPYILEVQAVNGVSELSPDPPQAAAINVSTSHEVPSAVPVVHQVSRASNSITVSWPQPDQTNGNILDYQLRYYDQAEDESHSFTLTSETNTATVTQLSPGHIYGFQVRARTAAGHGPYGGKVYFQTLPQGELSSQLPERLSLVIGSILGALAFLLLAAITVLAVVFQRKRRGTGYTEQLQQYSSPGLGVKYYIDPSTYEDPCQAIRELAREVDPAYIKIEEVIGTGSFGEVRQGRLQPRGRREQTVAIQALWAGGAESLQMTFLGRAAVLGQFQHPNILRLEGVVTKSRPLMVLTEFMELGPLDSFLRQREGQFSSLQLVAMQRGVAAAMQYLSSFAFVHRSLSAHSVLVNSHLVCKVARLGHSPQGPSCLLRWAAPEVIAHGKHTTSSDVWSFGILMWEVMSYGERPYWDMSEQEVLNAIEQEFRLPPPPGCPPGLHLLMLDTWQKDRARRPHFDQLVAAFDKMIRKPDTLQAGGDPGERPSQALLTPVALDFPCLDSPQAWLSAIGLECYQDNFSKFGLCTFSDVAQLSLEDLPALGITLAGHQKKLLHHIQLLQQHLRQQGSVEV

Chain of Wee1-like protein kinase (Homo sapiens) (P30291 whole entry, looked up): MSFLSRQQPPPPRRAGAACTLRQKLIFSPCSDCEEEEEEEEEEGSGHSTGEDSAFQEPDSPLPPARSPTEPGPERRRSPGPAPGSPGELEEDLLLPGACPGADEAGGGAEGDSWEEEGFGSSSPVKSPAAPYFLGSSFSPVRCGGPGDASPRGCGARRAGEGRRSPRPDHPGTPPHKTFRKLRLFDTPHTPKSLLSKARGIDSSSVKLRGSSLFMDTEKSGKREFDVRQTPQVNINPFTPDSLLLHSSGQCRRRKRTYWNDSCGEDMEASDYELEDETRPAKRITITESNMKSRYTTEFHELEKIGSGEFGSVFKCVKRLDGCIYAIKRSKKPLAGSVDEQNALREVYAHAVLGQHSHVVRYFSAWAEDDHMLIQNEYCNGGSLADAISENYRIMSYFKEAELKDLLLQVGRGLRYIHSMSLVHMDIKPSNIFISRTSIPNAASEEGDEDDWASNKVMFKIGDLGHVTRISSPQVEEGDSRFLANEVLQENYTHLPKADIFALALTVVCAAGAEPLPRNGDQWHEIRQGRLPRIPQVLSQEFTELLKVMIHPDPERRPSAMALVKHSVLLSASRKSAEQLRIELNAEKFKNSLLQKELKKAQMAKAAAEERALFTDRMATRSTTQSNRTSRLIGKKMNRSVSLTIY
Chain of Wee1-like protein kinase 2 (Homo sapiens) (P0C1S8 whole entry, looked up): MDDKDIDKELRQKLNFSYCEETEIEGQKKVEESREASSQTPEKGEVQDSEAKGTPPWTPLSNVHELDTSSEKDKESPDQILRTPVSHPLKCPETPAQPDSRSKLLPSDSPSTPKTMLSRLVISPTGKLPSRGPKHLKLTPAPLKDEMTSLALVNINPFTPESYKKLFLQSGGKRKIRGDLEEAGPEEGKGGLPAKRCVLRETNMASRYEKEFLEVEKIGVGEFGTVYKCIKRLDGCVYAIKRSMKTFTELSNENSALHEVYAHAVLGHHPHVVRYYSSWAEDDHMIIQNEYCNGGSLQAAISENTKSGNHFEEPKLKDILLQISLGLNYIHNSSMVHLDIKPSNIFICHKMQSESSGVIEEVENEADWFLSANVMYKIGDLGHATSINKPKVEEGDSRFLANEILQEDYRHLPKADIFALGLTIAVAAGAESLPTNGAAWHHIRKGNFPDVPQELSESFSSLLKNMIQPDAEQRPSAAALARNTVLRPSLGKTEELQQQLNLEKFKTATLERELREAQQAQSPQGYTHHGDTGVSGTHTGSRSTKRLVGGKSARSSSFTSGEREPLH
Chain of ALK tyrosine kinase receptor (Q9UM73 whole entry): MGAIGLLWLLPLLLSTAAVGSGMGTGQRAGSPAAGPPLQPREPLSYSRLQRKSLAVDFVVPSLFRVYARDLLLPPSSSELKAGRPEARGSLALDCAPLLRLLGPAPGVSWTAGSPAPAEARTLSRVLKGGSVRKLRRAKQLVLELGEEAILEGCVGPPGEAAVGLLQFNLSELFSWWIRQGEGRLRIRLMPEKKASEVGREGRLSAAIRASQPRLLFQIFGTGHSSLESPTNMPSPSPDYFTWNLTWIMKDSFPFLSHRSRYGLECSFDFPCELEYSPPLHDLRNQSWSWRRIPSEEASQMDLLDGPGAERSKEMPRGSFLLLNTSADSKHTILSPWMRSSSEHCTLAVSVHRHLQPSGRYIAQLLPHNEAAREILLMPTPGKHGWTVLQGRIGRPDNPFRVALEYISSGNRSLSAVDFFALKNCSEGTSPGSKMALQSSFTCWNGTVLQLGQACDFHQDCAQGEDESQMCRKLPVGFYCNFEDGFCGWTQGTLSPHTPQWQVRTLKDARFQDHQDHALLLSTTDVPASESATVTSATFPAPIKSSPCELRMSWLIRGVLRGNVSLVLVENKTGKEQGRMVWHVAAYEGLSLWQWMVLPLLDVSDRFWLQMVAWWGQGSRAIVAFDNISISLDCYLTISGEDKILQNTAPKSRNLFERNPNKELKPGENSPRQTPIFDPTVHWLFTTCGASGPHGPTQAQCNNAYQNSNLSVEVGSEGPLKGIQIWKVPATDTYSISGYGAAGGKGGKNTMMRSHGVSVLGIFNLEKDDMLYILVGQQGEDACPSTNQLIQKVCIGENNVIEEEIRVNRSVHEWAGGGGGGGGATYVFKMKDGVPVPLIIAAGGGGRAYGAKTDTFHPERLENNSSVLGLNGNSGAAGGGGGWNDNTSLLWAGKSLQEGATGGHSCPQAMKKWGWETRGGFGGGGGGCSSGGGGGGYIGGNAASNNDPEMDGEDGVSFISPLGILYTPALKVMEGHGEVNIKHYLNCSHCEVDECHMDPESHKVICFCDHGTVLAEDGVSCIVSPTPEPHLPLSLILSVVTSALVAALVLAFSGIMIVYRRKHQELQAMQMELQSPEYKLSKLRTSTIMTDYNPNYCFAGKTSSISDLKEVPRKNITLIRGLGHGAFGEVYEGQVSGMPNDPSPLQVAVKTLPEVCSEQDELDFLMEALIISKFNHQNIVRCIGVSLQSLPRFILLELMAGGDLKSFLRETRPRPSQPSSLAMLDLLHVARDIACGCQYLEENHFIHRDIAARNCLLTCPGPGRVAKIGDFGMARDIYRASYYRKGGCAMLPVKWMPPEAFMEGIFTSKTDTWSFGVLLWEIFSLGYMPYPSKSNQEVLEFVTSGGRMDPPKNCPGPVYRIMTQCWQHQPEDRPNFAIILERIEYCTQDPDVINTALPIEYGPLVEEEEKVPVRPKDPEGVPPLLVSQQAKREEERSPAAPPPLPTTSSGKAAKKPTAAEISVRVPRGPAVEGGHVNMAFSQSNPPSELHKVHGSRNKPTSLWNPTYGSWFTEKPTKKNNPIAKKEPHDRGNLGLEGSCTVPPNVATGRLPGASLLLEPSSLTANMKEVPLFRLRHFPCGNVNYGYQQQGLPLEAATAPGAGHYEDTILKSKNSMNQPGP
Chain of Serine/threonine-protein kinase 16 (O75716 whole entry): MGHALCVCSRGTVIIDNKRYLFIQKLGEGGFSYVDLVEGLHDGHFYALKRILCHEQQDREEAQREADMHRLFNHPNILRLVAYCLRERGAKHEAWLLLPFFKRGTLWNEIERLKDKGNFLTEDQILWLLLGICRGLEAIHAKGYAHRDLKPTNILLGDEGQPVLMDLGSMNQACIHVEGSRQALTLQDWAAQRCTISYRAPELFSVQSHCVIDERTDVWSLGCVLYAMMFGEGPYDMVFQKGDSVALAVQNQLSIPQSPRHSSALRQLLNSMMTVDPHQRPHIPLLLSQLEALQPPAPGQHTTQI
Chain of Serine/threonine-protein kinase SIK1 (Homo sapiens) (P57059 whole entry): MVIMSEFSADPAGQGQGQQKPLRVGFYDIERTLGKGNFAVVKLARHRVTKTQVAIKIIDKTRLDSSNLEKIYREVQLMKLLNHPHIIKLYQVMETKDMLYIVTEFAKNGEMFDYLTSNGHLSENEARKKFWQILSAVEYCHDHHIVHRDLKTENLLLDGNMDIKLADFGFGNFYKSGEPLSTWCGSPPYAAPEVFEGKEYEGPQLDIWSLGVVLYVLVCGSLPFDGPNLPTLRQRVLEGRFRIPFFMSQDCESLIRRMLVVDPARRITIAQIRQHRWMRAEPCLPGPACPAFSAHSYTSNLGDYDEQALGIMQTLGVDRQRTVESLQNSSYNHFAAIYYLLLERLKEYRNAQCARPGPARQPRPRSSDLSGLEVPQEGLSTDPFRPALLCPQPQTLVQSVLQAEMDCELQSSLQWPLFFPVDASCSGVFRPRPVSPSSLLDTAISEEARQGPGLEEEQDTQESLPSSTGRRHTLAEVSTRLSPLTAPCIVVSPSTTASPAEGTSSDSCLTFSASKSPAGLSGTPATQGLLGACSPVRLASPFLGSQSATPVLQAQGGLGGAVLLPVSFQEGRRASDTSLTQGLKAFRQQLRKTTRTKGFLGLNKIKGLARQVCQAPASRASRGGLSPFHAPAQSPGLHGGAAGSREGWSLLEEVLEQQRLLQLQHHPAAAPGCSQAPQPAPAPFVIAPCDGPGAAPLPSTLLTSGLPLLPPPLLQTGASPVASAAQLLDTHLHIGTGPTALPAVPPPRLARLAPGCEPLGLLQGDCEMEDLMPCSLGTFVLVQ
Chain of Mitogen-activated protein kinase 9 (P45984 whole entry, looked up): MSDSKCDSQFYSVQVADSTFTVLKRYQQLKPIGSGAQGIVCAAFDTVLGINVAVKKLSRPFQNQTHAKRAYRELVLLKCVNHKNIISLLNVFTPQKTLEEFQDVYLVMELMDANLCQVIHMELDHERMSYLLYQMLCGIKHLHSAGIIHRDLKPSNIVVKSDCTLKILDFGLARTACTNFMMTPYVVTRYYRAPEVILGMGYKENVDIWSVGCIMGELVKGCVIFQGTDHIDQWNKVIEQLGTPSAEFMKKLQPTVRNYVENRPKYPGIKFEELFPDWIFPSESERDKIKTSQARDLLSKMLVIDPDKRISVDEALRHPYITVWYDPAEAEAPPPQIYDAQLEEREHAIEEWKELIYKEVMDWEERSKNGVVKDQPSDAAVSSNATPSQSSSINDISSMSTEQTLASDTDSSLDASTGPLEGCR
Chain of Atypical kinase COQ8A, mitochondrial (Q8NI60 163-647 limits assumed): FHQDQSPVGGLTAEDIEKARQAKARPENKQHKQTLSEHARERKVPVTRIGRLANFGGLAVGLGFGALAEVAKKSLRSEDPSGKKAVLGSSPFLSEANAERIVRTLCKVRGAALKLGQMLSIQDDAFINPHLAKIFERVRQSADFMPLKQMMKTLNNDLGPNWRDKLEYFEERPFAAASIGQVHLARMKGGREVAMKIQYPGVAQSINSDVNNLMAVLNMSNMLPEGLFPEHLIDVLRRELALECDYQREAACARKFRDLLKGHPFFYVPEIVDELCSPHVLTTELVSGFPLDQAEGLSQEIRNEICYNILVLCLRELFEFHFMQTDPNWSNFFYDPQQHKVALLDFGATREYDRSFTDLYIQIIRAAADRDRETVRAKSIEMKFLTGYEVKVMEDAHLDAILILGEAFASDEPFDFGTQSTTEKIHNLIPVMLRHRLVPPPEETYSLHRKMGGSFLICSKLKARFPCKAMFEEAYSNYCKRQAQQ

% of inhibition [1]: -0.976% | % of inhibition [2]: 8.48%
Compound: Cn1cc(-n2cnc3c(NCc4nc5cc(Cl)c(Cl)cc5[nH]4)nc(N4CCOCC4)nc32)cn1

IC50 [3]: > 10 µM
Compound: CCC(=O)N1CC[C@H](Nc2ncnc3c2CN(c2cnc(OC)c(C(F)(F)F)c2)CC3)C1 [LENIOLISIB]

Compound: CCN(CC)CCCCNc1ncc2cc(-c3cc(OC)cc(OC)c3)c(NC(=O)NC(C)(C)C)nc2n1
% of control [4]: 100%

% of inhibition [5]: -18.4%
Compound: CC[C@@H]1[C@H](F)C(=O)N[C@@H]1COc1nccc2cc(C(N)=O)c(OC)cc12 [ZIMLOVISERTIB]

Compound: CN(C)CCOc1ccc(-c2nc(-c3ccncc3)c(-c3ccc4c(c3)CC/C4=N\O)[nH]2)cc1
% of control [6]: 100%

Compound: C=CC(=O)Nc1cc(-n2c(=O)ccc3cnc4ccc(-c5ccc(NS(C)(=O)=O)cc5)cc4c32)ccc1C
% of control ([7]; at 1 µM): 100% | % of control ([7]; at 10 µM): 92%

Compound: CCC(=O)N1CCN(c2ccc(-n3c(=O)ccc4cnc5ccc(-c6cnc7ccccc7c6)cc5c43)cc2C(F)(F)F)CC1
% of control [8]: 85% | % of control [9]: 100%

Compound: Cc1cc([C@@H](C)Nc2ccccc2C(=O)O)c2nc(N3CCOCC3)cc(=O)n2c1 [AZD-6482]
% of control [10]: 77%

Compound: O[C@H]1CC[C@H](Nc2ncc3nc(Nc4c(F)cc(F)cc4F)n([C@H]4CCOC4)c3n2)CC1
% of control [11]: 100% | % of control [12]: 7.8%
